{"source": "patent US20090068098A1", "about": "“ANTIBODIES AND RELATED MOLECULES THAT BIND TO 58P1D12 PROTEINS” (priority 2007, published 2009)", "system": "LAPC9-AI androgen-independent prostate tumor xenografts", "test": "Established LAPC9-AI prostate tumor xenografts in tibiae, monotherapy and combination with Carboplatin", "format": "in vivo, mouse", "conditions": "day 33, vs control antibody; MAb 2 mg loading then 1.0 mg i.p. twice weekly, 7 doses; Carboplatin 40 mg/kg i.v. days 7, 11, 15, 19, 22, 26", "method": "FIG. 16. […] The tumors were allowed to establish for 7 days, at which time the animals were randomized and assigned to four different groups (n=10 in each group) as indicated in the graph. […] Carboplatin (40 mg/kg) was administered to the mice intravenously (i.v.) on days 7, 11, 15, 19, 22 and 26. On day 33 all mice were sacrificed and the tumors were excised and weighed on an electronic balance.\nThe tumors were allowed to establish for 7 days, at which time the animals were randomized and assigned to four different groups (n=10 in each group). […] Carboplatin (40 mg/kg) was administered to the mice intravenously (i.v.) on days 7, 11, 15, 19, 22 and 26. On day 33 all mice were sacrificed and the tumors were excised and weighed on an electronic balance.", "data": [{"smiles": "N.N.O=C([O-])C1(C(=O)[O-])CCC1.[Pt+2]", "note": "[Carboplatin]", "values": [{"measurement": "inhibition of tumor growth (tumor weight)", "value": 87, "unit": "%"}]}]}
